# Experimental data reported in a melting point compilation (Tetko et al.; mined from patent text by program, amines drawn as free bases though some values may be those of a salt).
row,SMILES,melting point
1,C#C[C@H]1CC[C@H](C(=O)O)CC1,161 to 162 °C
2,CC(CO)c1ccc2oc3nc(N)c(C(=O)O)cc3c(=O)c2c1 (centres undefined),> 300 °C
3,Cn1cc(CO)c(=O)c2cccc(Cl)c21,182 to 184 °C
4,CC(=O)OC1CCC(n2c(Br)nc3cc(Cl)c(Cl)cc32)C1OC(C)=O (centres undefined),140 to 146 °C
5,CCOc1cc2c(Nc3ccc(Sc4nccn4C)c(Cl)c3)c(C#N)cnc2cc1F,251 to 254 °C
6,Cc1cc(C)cc(Oc2c(C(C)C)c(=O)[nH]c(=O)n2CCC2C=CCC2)c1 (centres undefined),148 to 149 °C
7,COCc1ccc(O)cc1,79 to 80 °C
8,Cc1ccc(NC(=O)N2CC(C)(C)NC(C)(C)CC2=O)cc1,126 °C
9,Cc1ccc(Cn2nnc(C(N)=O)c2N)cc1C(Cl)=C(Cl)Cl,196 to 197 °C
10,Cc1cccc(C(O)CNC(N)=C(CCSCc2cc(C)c(CN(C)C)s2)[N+](=O)[O-])c1 (centres undefined),88 to 89 °C
11,CN1C(=O)CC[C@]2(C)c3ccc(-c4ccc(C(F)(F)F)cc4[N+](=O)[O-])cc3CC[C@@H]12,55 to 57 °C
12,Cc1ccc(N(C#N)C(=O)CCCCC(=O)N(C#N)c2ccc(C)cc2C)c(C)c1,120 to 122 °C
13,O=C(O)CCCc1cc2cc(Cl)ccc2n1S(=O)(=O)c1ccc(N2CCOCC2)nc1,78 to 82 °C
14,COc1ccc(CS(=O)(=O)/C(=C/c2ccc(Br)cc2)C(=O)c2ccc(Br)cc2)cc1,146 to 150 °C
15,CNC(=C[N+](=O)[O-])NCCSCc1csc(CN2CCCCC2)c1,101 to 103 °C
16,CCc1c(OC)nc2nc(-c3noc(C(F)(F)F)n3)cn2c1C,197 to 200 °C
17,CCCCc1c(C(=O)OCC)cc(OC(C)=O)c2c(OC)cccc12,86 to 88 °C
18,Cc1onc(-c2c(F)cccc2Cl)c1C(=O)CBr,74 to 75 °C
19,Cc1c(-c2ccccc2F)[nH]c(N)c1C#N,117 to 118 °C
20,C#Cc1cccc(Nc2ncnc3c2ccn3CCOCCOC)c1,240 to 241 °C
21,CN(C)N=C(N)Nc1c(Cl)cccc1Cl,> 280 °C
22,CCCSc1ccc(N)c([N+](=O)[O-])c1,36.5 to 38 °C

row,SMILES,melting point
1,O=C(O)c1ccc(-c2nc3cc(Cl)c(Cl)cc3[nH]2)cc1,> 250 °C
2,CN(c1ncnc2[nH]ccc12)C1CCCCC1,177 to 180 °C
3,O=C(O)C1CCc2cc(O)ccc21 (centres undefined),137 to 138 °C
4,CN1C(=O)N(CC(CS(=O)(=O)c2ccc(Oc3ccc(C(F)(F)F)cc3)cc2)N(O)C=O)C(=O)C1(C)C (centres undefined),141 to 143 °C
5,CCOP(=O)(OCC)N1CCN(c2cc3c(cc2F)c(=O)c(C(=O)OCCOC)cn3C2CC2)CC1,138 to 141 °C
6,CN(C)c1ccc2[nH]c(-c3cc(NC(=O)c4cccc(OCCCCCCC(=O)NO)c4)ccc3Cl)nc2c1,140 to 142 °C
7,CCCOC(=O)Nc1cnc(OCCC)c(-c2nc3c(CCC)nn(C)c3c(=O)[nH]2)c1,210 to 211 °C
8,O=S(=O)(CCC=C(F)F)c1nccc(-c2ccccc2)n1,103 to 104 °C
9,CS(=O)(=O)c1ccc(C(=O)O)c(Cl)c1F,204 °C
10,CCCCCCCCCCCCc1nnn(CC(=O)O)n1,89 to 91 °C
11,O=[N+]([O-])c1ccccc1-c1cnoc1,51 to 54 °C
12,O=C(c1ccc(Nc2ccnc3cc(C(F)(F)F)ccc23)cc1)N1CCC(O)(c2cccc(C(F)(F)F)c2)CC1,278 to 279 °C
13,CCCCNC(=S)Nc1ccc(NNC=O)c(OC)c1,130 to 132 °C
14,Nc1cc(=O)n(Cc2ccc(OC(F)(F)F)cc2)[nH]1,99 °C
15,Cc1cc(C)nc(C(=O)c2[nH]c3ccc(Cl)cc3c2CC(=O)O)c1,233 to 235 °C
16,COc1cc2c(cc1OC)CC(N1CC(O)CC1=O)CC2 (centres undefined),178 to 179 °C
17,COc1ccccc1CN[C@H]1CCCN[C@H]1c1ccoc1 (relative stereo),> 247 °C
18,N#CCC1OC(n2cnc3c(NN4CCCCC4)nc(Cl)nc32)C(O)C1O (centres undefined),192 to 193 °C
19,COc1cc(C=C(C)[N+](=O)[O-])ccc1OCC(=O)O,116 to 117 °C
20,CCC=C1Cc2c(c(C)c(C)c3oc(C(=O)O)cc23)C1=O,301 °C
21,CCOC(=O)C(=O)Nc1ccc(C(=O)NC2CCN(C3CCCCC3)C2)cc1 (centres undefined),138 to 141 °C
22,O=Cc1nccn1Cc1ccccc1[N+](=O)[O-],141 to 144 °C

row,SMILES,melting point
1,Cc1ccn2c(C)c(-c3ccc4sc(=O)n(C)c4c3)nc2c1,204 to 206 °C
2,CC(C)C(=O)N[C@@H](CSC(=O)C(C)(C)C)C(=O)NCCSC(=O)C(C)(C)C,106 to 108 °C
3,N=C(Nc1cccc(NC(=O)C=Cc2ccccc2)c1)c1ccccc1,115 to 117 °C
4,COC(=O)C(c1ccc(Cl)cc1)C(OC)OC (centres undefined),61 to 62 °C
5,CN1CCC(OC(c2cccc(SCCNC(N)=O)c2)c2nc3ccccc3[nH]2)CC1 (centres undefined),136 °C
6,Cc1nc(N=Nc2ccccc2)c(O)c(=O)[nH]1,243 to 245 °C
7,FC(F)c1nc2ccccc2n1-c1nc(Nc2ncccn2)nc(N2CCOCC2)n1,261 to 263 °C
8,NC1=Nc2ccccc2CS1,132 to 135 °C
9,CC(C)(C)OC(=O)N(C(=N)NS(=O)(=O)C(F)(F)F)C(=O)OC(C)(C)C,114 to 115 °C
10,COC(=O)c1ccc(OCCCCCOc2ccc(C#N)cc2)c(OC)c1,105 to 107 °C
11,COCOc1c(OC)cc(C=CC(=O)c2c(OC)cc(OC)c(CC=C(C)C)c2O)cc1OC,128 to 129 °C
12,CCOC(=O)c1ccc(NCCc2ccc(OCc3ccccc3)cc2)cc1,94 to 97 °C
13,COc1ccc(C=O)c(OCCO)c1,94 °C
14,CNC(=Nc1cc(Cl)ccc1N1CCOCC1)NC,145 to 146 °C
15,CC1CC2=CC(=O)CCC2C2C(Cl)CC3(C)C(=O)CCC3C12 (centres undefined),215 °C
16,Cc1c(Br)c2c(c(C)c1NC(=O)OC(C)(C)C)C(N1CCCC1)C(C)(C)O2 (centres undefined),128 to 130 °C
17,C[C@H](NC(=O)c1c[nH]c2ncc(-c3ccc(C(F)(F)F)cc3)nc12)C(C)(C)C,> 300 °C
18,CNC(=O)NCCSCc1ccccn1,63 to 66 °C
19,CCO[PH](=O)OP(=O)(CNC(C)(c1ccccc1)c1cc(C(C)(C)C)c(O)c(C(C)(C)C)c1)OCC (centres undefined),95 to 110 °C
20,O=C1C(=CO)Cc2ccccc21,112 to 113 °C
21,CC(=O)Oc1c(C)c(C)c2c(c1C)CC(C)(C=O)O2 (centres undefined),78 to 79 °C

# Continued, values first:
row,melting point,SMILES
1,150 to 151 °C,Cc1oc(-c2ccccc2)nc1CCC(O)c1ccc(CCCC2OC(=O)NC2=O)cc1 (centres undefined)
2,124 to 126 °C,COC(=O)[C@@H]1[C@H](NC(=O)Cc2ccccc2)C(=O)N1Cc1ccc(OC)cc1OC (relative stereo)
3,117 to 119 °C,O=C(Nc1cccnc1NCc1ccc(Cl)cc1)c1ccccc1Cl
4,96 to 98 °C,Cc1ccc(S(=O)(=O)Nc2ccccc2)cc1
5,238 to 240 °C,COc1cccc(OC)c1C(=O)Nc1nnc(-c2ccc(Cl)cc2)s1
6,85 °C,O=[N+]([O-])c1cc(Cl)c(Oc2cc(Cl)c(Br)cc2Cl)cc1Oc1ccccc1
7,104 to 106 °C,COC(=O)C1=Cc2cc(Br)ccc2N(c2ccccc2)CC1
8,250 to 252 °C,O=C(O)c1ccc(COc2ccc3cc(-c4ccc(-c5ccccc5)n4Cc4ccc(C(F)(F)F)cc4)ccc3c2)c(C(=O)O)c1
9,68 to 69.5 °C,O=C(c1cccc(F)c1)N1CC2CC2(c2ccccc2)C1 (centres undefined)
10,304 °C,O=c1[nH]c2ncccc2c(=O)n1-c1ccccc1
11,178 to 180 °C,Cc1nn(-c2ccc(F)cc2)cc1C(=O)N(CCCC(=O)O)c1ccc(OCC(C)(C)C)c(C#N)c1
12,173 to 174 °C,COc1ccc(-c2cc(N3CCN(c4ccccc4)CC3)nc(C)c2-c2ccc(OC)cc2)cc1
13,140 to 141 °C,CC1(C)OC(c2ccc(S(C)(=O)=O)cc2)=C(c2cc3ccccc3o2)C1=O
14,97 °C,OC(c1ccccc1)c1cc(Cl)ccc1CNC(=S)NCCc1ccccc1 (centres undefined)
15,200 to 201 °C,COc1ccc2c(c1)-c1n[nH]c(-c3ccncc3)c1CCC2
16,194 to 196 °C,O=CNCC(=O)c1cccc(Nc2ccc3ccccc3n2)c1
17,226 to 227 °C,Cc1noc2cc3c(cc12)C1(CO3)C(=O)Nc2ccccc21 (centres undefined)

row,melting point,SMILES
1,203 °C,C[C@@H](Nc1ncnc2cc(F)c([N+](=O)[O-])cc12)c1ccccc1
2,170 to 172 °C,Fc1cc(F)c(-c2cncn2-c2ccc(Cl)cc2)c(F)c1
3,71 to 71.9 °C,CC(C)(C)OC(=O)CCOCCCc1cccc(-c2nc(=O)c3ccccc3s2)n1
4,118 to 120 °C,Cc1cc(C(=O)N2Cc3cccn3Cc3ccccc32)ccc1C1=CC(C)(C)CC(C)(C)C1
5,120 to 127 °C,CC(C)(C)CC(C)(C)c1cc(N=Nc2cc(C(F)(F)F)ccc2Cl)c(O)c(C(C)(C)c2ccccc2)c1
6,243 to 245 °C,Cc1oc(-c2ccccc2)nc1CCOc1ccc(C[C@H](NC(=O)C(F)=Cc2ccccc2)C(=O)O)cc1Br
7,273 to 278 °C,Cc1ccc(N2C(=O)C(O)=C(C(=O)c3ccc(C(C)C)cc3)C2c2ccc(F)cc2)nn1 (centres undefined)
8,238 to 239 °C,COc1cn(-c2ccc(N3CCN(C(C)(C)C)C3=O)cc2F)nc(-c2ccnn2-c2ccccc2)c1=O
9,140 to 142 °C,CC(C)n1nc(-c2c(-c3ccccc3)nn3ccc(Oc4ccccn4)cc23)ccc1=O
10,142 to 143 °C,O=C(O)c1cccc(-c2cccc(OCCc3cccc(F)c3)n2)c1
11,196 to 197 °C,CC(C)(C)C(NC(=O)c1ccc(Cl)cc1)NC(=NS(=O)(=O)c1ccccc1)Nc1cccnc1 (centres undefined)
12,209 to 214 °C,Cc1cc(C)c(Nc2nc(Nc3ccc(C#N)cc3)ncc2-c2ccccc2)c(C)c1
13,178 °C,COc1cccc2oc(-c3ccc(F)cc3)cc(=O)c12
14,180 °C,O=C1c2ccccc2C(=O)N1Nc1ccccc1
15,240 to 242 °C,Cc1ccc2[nH]c(NC(=O)c3ccccc3)nc(=O)c2c1
16,54 to 54.5 °C,COC(=O)CCCc1ccc(C(=O)Cc2ccccc2)cc1
17,210 °C,Cc1ccc2c(c1)C=Cc1cc(C)ccc1C2c1cn(Cc2ccc(C(=O)Nc3nc(CC(=O)O)cs3)o2)c(=O)[nH]c1=S
